# Molecular target: T1, PRKG2 (PKG2) (Homo sapiens, UniProt Q13237)
# T1 construct: purchased Thermo Fisher Scientific (Life Technologies) SelectScreen
# Test: SelectScreen Z'LYTE
# Assay type: biochemical
# Outline: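 Percent values come from Thermo SelectScreen profiling of NU5455, combining activity and binding assays. CSF1R was run in Z'LYTE format at Km app ATP, and CAMK1 in Adapta format with ATP listed at 10.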
# T1 sequence (Q13237 whole entry): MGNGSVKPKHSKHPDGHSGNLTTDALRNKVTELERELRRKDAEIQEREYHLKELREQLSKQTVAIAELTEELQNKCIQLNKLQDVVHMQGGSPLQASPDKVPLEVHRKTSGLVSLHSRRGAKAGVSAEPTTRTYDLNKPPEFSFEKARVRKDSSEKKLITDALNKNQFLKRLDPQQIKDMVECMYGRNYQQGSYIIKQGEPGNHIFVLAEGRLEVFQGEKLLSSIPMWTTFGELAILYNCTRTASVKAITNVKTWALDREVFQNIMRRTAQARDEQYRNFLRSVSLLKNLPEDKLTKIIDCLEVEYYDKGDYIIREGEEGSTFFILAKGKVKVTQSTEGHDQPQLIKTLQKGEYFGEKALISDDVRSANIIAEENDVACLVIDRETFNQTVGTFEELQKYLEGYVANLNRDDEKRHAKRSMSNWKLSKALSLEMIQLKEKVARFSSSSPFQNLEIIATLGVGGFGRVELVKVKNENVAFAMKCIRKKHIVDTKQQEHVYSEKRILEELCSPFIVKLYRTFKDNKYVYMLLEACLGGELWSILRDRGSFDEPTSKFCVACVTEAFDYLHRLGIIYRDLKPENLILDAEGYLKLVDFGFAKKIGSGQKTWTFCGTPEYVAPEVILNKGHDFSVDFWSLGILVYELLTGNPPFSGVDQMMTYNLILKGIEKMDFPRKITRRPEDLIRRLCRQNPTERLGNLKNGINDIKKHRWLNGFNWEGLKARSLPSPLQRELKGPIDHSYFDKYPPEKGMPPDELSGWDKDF
smiles,measurement,value
CN(C(=O)CN1CCOCC1)c1ccc2sc3c(-c4cccc5c(=O)cc(N6CC7CCC(C6)O7)oc45)cccc3c2c1 [NU5455],inhibition at 1 µM,-5.1%

# — article PMC6934184, “Selective DNA-PKcs inhibition extends the therapeutic index of localized radiotherapy and chemotherapy” (The Journal of Clinical Investigation, 2019)
